Source: PubChem BioAssay AID1918945 (Molecular Pharmacology Branch, DTP, NCI, 2023)

System: 883617-216-R-J1-PDC complex spheroid viability
Assay: Anticancer human tumor 883617-216-R-J1-PDC patient-derived bladder carcinoma cell line growth inhibition
Settings: for IC50: curve of first compound; for viability, T/C: stronger effect = lower value
How it was run: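 Multicellular complex spheroids of tumor cells with human endothelial cells (HUVEC) and mesenchymal stem cells; the LSD1 inhibitor iadademstat was combined with standard-of-care or investigational agents. Top concentration at or near clinical Cmax, half-log dilutions; final DMSO ≤0.25%.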

[1] = second compound 0.1 µM, first compound 0.0316 µM
[2] = second compound 0.1 µM, first compound 0.1 µM
[3] = second compound 0.1 µM, first compound 0.316 µM
[4] = second compound 0.1 µM, first compound 1 µM
[5] = second compound 0.1 µM, first compound 3.16 µM
[6] = second compound 0.1 µM, first compound 10 µM
[7] = second compound 0.316 µM, first compound 0.0316 µM
[8] = second compound 0.316 µM, first compound 0.1 µM
[9] = second compound 0.316 µM, first compound 0.316 µM
[10] = second compound 0.316 µM, first compound 1 µM
[11] = second compound 0.316 µM, first compound 3.16 µM
[12] = second compound 0.316 µM, first compound 10 µM
[13] = second compound 1 µM, first compound 0.0316 µM
[14] = second compound 1 µM, first compound 0.1 µM
[15] = second compound 1 µM, first compound 0.316 µM
[16] = second compound 1 µM, first compound 1 µM
[17] = second compound 1 µM, first compound 3.16 µM
[18] = second compound 1 µM, first compound 10 µM
[19] = second compound 3.16 µM, first compound 0.0316 µM
[20] = second compound 3.16 µM, first compound 0.1 µM
[21] = second compound 3.16 µM, first compound 0.316 µM
[22] = second compound 3.16 µM, first compound 1 µM
[23] = second compound 3.16 µM, first compound 3.16 µM
[24] = second compound 3.16 µM, first compound 10 µM
[25] = second compound 10 µM, first compound 0.0316 µM
[26] = second compound 10 µM, first compound 0.1 µM
[27] = second compound 10 µM, first compound 0.316 µM
[28] = second compound 10 µM, first compound 1 µM
[29] = second compound 10 µM, first compound 3.16 µM
[30] = second compound 10 µM, first compound 10 µM
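Also: exposure lasted seven days after three days of spheroid growth.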
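For viability, T/C in this document: 100% = DMSO vehicle control luminescence.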

Row | SMILES | IC50 (second compound 0.1 µM) [nM] | IC50 (second compound 0.316 µM) [nM] | IC50 (second compound 1 µM) [nM] | IC50 (second compound 3.16 µM) [nM] | IC50 (second compound 10 µM) [nM] | viability, T/C [1] [%] | viability, T/C [2] [%] | viability, T/C [3] [%] | viability, T/C [4] [%] | viability, T/C [7] [%] | viability, T/C [8] [%] | viability, T/C [9] [%] | viability, T/C [10] [%] | viability, T/C [13] [%] | viability, T/C [14] [%] | viability, T/C [15] [%] | viability, T/C [16] [%] | viability, T/C [19] [%] | viability, T/C [20] [%] | viability, T/C [21] [%] | other results
1 | CC(C)c1c(-c2ccccc2)nc2c(C#N)c[nH]n2c1=O + NC1CC1c1ccc(-c2cccc(O)c2)cc1 | > 10000 | > 10000 | > 10000 | > 10000 | > 10000 | 110 | 118 | 119 | 109 | 114 | 126 | 122 | 122 | 132 | 119 | 116 | 117 | 124 | 117 | 105 | viability, T/C [5]: 113%; viability, T/C [6]: 96%; viability, T/C [11]: 94.8%; viability, T/C [12]: 108%; viability, T/C [17]: 102%; viability, T/C [18]: 109%; viability, T/C [22]: 104%; viability, T/C [23]: 100%; viability, T/C [24]: 94.4%; viability, T/C [25]: 100%; viability, T/C [26]: 93.2%; viability, T/C [27]: 79.8%; viability, T/C [28]: 89.9%; viability, T/C [29]: 96.2%; viability, T/C [30]: 85.3%
2 | CC1COCCN1c1cc(-c2ccnn2C)c2ccnc(-c3ccn[nH]3)c2n1 (stereo not given) + NC1CC1c1ccc(-c2cccc(O)c2)cc1 | 7.65 | 8.14 | 8.58 | 4.73 | 3.73 | 37.2 | 29.1 | 24.6 | 18.8 | 35.3 | 32.7 | 26 | 21 | 32.8 | 29.1 | 23.1 | 20.4 | 30.3 | 26.6 | 23.2 | viability, T/C (second compound 0.1 µM, first compound 0.00316 µM): 56.5%; viability, T/C (second compound 0.1 µM, first compound 0.01 µM): 49.9%; viability, T/C (second compound 0.316 µM, first compound 0.00316 µM): 63.4%; viability, T/C (second compound 0.316 µM, first compound 0.01 µM): 45.9%; viability, T/C (second compound 1 µM, first compound 0.00316 µM): 60.1%; viability, T/C (second compound 1 µM, first compound 0.01 µM): 49.8%; viability, T/C (second compound 3.16 µM, first compound 0.00316 µM): 56.6%; viability, T/C (second compound 3.16 µM, first compound 0.01 µM): 37.8%; viability, T/C [22]: 19.4%; viability, T/C (second compound 10 µM, first compound 0.00316 µM): 51.2%; viability, T/C (second compound 10 µM, first compound 0.01 µM): 41.9%; viability, T/C [25]: 27.6%; viability, T/C [26]: 25%; viability, T/C [27]: 22.6%; viability, T/C [28]: 19.7%
3 | CC1COCCN1c1cc(C2(S(C)(=N)=O)CC2)nc(-c2ccnc3[nH]ccc23)n1 (stereo not given) + NC1CC1c1ccc(-c2cccc(O)c2)cc1 | 357 | 435 | 501 | 259 | 152 | 97.8 | 78.5 | 51.9 | 35 | 112 | 76.6 | 55 | 38.2 | 101 | 77.4 | 55.3 | 41.5 | 88.5 | 65.3 | 46.1 | viability, T/C [5]: 28.9%; viability, T/C [6]: 27.7%; viability, T/C [11]: 31.8%; viability, T/C [12]: 25.2%; viability, T/C [17]: 29.1%; viability, T/C [18]: 22.4%; viability, T/C [22]: 35%; viability, T/C [23]: 31.5%; viability, T/C [24]: 24.6%; viability, T/C [25]: 81%; viability, T/C [26]: 58.4%; viability, T/C [27]: 34.6%; viability, T/C [28]: 29.3%; viability, T/C [29]: 25.8%; viability, T/C [30]: 22.8%
